What was measured:
alcohol dehydrogenase 1 = molecular target: T1, alcohol dehydrogenase 1 (Mus musculus, UniProt P00329); test: LC/MS/MS identification of proteins from mouse liver extracts labeled with MTS-I-49; format: biochemical
T1 construct: from tissue; host or cells: mouse liver extract

[1] = molecular target: T2, betaine-homocysteine methyltransferase (Mus musculus, UniProt O35490); test: as above; format: biochemical
T2 construct: from tissue; host or cells: mouse liver extract
T2 sequence (O35490 1-407): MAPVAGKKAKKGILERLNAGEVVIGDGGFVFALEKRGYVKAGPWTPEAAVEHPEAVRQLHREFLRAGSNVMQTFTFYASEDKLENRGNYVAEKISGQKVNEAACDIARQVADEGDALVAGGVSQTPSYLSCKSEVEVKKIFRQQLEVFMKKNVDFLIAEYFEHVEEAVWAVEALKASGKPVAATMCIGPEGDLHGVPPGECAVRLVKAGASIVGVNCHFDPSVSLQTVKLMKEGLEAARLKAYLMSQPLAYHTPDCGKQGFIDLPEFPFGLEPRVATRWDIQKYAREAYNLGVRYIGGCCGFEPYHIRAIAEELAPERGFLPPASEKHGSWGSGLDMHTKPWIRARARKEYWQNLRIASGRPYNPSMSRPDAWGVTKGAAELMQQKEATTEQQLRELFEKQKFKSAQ

[2] = Background peptides, chemical elution versus on-bead digestion; design: species or system mouse; details: chemical elution compared with on-bead digestion
Procedure: After enrichment on immobilized avidin, each of the three labeled proteomes (FIG. 5b) was divided into two aliquots. One was prepared for LC-MS/MS analysis by “on bead” digestion, while the other was chemically eluted and digested “in solution.” Proteins identified in each tissue lysate are listed with their accession number and theoretical molecular weight (MW). To compare both approaches, the number of identified peptides and percentage of amino acid sequence coverage is listed for each protein.
Carboxylesterase 4 has not been characterized on a functional level and has never been confirmed to be catalytically active (Rawlings, N. D., Morton, F. R., and Barrett, A. J. (2006) MEROPS: the peptidase database. Nucleic Acids Res 34, D270-272.). […] Overall the level of background peptides was decreased by over 90%, when chemical elution was used for the sample preparation (as shown in the above Table). Although the number of carboxylesterase peptides identified was reduced compared to the on-bead sample we could still make a confident identification with nearly 40% coverage of peptide sequence.

[3] = chemically eluted, digested in solution

T1 sequence (P00329 whole entry): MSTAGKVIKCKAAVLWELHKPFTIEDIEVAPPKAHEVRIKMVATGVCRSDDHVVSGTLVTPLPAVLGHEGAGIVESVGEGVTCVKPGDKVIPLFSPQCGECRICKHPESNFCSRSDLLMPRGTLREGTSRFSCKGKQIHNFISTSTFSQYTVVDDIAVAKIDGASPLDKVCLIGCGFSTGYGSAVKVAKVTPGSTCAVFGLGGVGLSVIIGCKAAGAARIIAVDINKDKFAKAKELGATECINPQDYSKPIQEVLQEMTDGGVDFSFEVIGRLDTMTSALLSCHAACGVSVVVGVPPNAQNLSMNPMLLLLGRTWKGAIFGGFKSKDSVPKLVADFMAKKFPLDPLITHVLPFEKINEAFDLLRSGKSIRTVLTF

In the case of `C[C@H](NC(=O)c1ccc(N=Nc2cc(CCNC(=O)CCCC[C@@H]3SC[C@@H]4NC(=O)N[C@@H]43)ccc2O)cc1)C(=O)N[C@@H](C)C(=O)NC(Cc1ccccc1)P(=O)(Oc1ccccc1)Oc1ccccc1` (stereo partly shown) [MTS-I-49], the “Chemical Cleavage, number of identified peptides” value (alcohol dehydrogenase 1; [3]) is reported as 0, the “On Bead Digestion, amino acid sequence coverage” value (alcohol dehydrogenase 1; on bead digestion) is reported as 20% and the “On Bead Digestion, number of identified peptides” value (alcohol dehydrogenase 1; on bead digestion) is reported as 3. For the same compound, the “Chemical Cleavage, number of identified peptides” value [1, 3] was 0, the “On Bead Digestion, amino acid sequence coverage” value ([1]; on bead digestion) was 19% and the “On Bead Digestion, number of identified peptides” value ([1]; on bead digestion) was 4. For the same compound, the “decrease of the level of background peptides” value [2] was “over 90%”.

From patent US8314215B2, “Mild chemically cleavable linker system” (The Board of Trustees of the Leland Stanford Junior …, priority 2006, dated 2012)
